Experimental findings from PubChem BioAssay AID488795 (NMMLSC, 2010) are described below.

Structures are written as SMILES. The source made the active and inactive calls. No rule for the calls is given here.

Sequence of Vacuolar aminopeptidase 1 (Saccharomyces cerevisiae (strain ATCC 204508 / S288c)) (P14904 whole entry, looked up): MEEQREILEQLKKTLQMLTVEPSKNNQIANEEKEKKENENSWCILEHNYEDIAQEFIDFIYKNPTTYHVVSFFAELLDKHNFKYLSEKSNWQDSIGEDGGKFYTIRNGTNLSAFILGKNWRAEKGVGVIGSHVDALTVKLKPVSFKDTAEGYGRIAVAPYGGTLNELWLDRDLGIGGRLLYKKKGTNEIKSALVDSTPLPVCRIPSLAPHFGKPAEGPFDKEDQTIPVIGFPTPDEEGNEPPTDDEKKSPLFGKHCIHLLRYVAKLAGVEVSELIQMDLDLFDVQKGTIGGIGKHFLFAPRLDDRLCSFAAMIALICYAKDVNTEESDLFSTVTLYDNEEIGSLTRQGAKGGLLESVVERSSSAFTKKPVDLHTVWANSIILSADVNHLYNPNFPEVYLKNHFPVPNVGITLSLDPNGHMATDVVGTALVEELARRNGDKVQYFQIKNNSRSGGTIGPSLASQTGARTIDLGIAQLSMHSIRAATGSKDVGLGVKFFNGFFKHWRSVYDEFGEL

The assay has as its target Vacuolar aminopeptidase 1 (Saccharomyces cerevisiae (strain ATCC 204508 / S288c)) (UniProt P14904). As to the kind of experiment: LAP4-GFP modulation potency, analog set, SAR follow-up, cell-based, KU SAR set, flow cytometry (AID 488795). To be noted: S. cerevisiae Lap4-GFP reporter, flow cytometry MCF. For orientation: In flow cytometry, cells or beads pass a laser one at a time.
For `C/C(=N\NC(=O)c1ccc(C(C)(C)C)cc1)c1ccccn1`, the EC50 entry is “inactive”.
In the case of `Clc1ccc(N=c2ssnc2Cl)cc1` it was 3.73 µM.
As for `CCCCC(=O)NNC(=S)NC(=O)c1ccc(C)cc1`, the EC50 is 4.05 µM.
Take `CCC(C)Nc1nc(N)c([N+](=O)[O-])c(Nc2cccc(F)c2)n1` (centres undefined): the EC50 result was “inactive”.
Next, `CSC1=NS(=O)(=O)c2c(C)nn(C)c2S1`: “inactive”; `COc1ccc([N+](=O)[O-])c(S(=O)(=O)c2ccccc2)n1`: 11.9 µM.
For the compound `Cc1ccc(S(=O)(=O)c2ncccc2[N+](=O)[O-])cc1`, the EC50 result is “inactive”.
Regarding `CCOC(=O)CCS(=O)(=O)c1nc(-c2ccccc2)cc(C(F)(F)F)n1`, the EC50 is 27.6 µM.
Take `O=[N+]([O-])c1ccc(S(=O)(=O)c2cccc(C(F)(F)F)c2)nc1`: the EC50 is 1.94 µM.
In the case of `CCSc1nnc(NC(=O)c2ccccn2)s1` it was “inactive”; in that of `CN1CCN(C(=O)c2cc(COc3c(F)cccc3F)on2)CC1c1ccccc1` (centres undefined), “inactive”.
Take `Oc1c(I)cc(I)c2cccnc12`: the EC50 entry is “inactive”.
Turning to `Nc1cc(Oc2cccc(Cl)c2)nc(NCc2ccccc2)n1`, the EC50 entry is “inactive”.
In the case of `COC(=O)CCS(=O)(=O)c1nc(-c2ccccc2)cc(C(F)(F)F)n1` it was 19.9 µM; in that of `CCOC(=O)CSC1=NC(=O)/C(=C\c2ccc(Cl)cc2)S1`, “inactive”; in that of `O=c1/c(=C/c2cccc3ccccc23)sc2ncnn12`, 4.36 µM.
As to `Cc1ccc(S(=O)(=O)c2ccc([N+](=O)[O-])cn2)cc1`, the EC50 is 2.55 µM.
In the case of `O=C(Nc1nc(-c2ccccn2)cs1)C1COc2ccccc2O1` (centres undefined) it was “inactive”; in that of `Nc1cc(Nc2cccc(F)c2)nc(NCc2ccccc2)n1`, “inactive”; in that of `COc1ccc([N+](=O)[O-])c(S(=O)(=O)c2ccc(Cl)cc2)n1`, 3.53 µM.
Consider `O=c1cc(CSc2ccc(Cl)cc2)nc(-c2ccccn2)[nH]1`, for which the EC50 is 1.22 µM.
For the compound `Cc1ccc2nc(Cl)c3nnnn3c2c1`, the EC50 is 4.47 µM.
Next, `O=S(=O)(CCN(CCS(=O)(=O)C(F)(F)F)CC1CCCO1)C(F)(F)F` (centres undefined): 12.5 µM; `CC(C)(C)C(=O)C(Cl)C(=O)Nc1ccccc1` (centres undefined): 6.93 µM.
In the case of `O=[N+]([O-])c1cc(S(=O)(=O)C(F)(F)F)ccc1Sc1nc2ccccc2s1` it was 14 µM; in that of `C/C(=N\NC(=O)c1cccc(Br)c1)c1ccccn1`, “inactive”.
Next, `O=[N+]([O-])c1ccc(O)c2ncccc12`: 6.57 µM.
For the compound `O=C(OCn1ncc(Br)c(Br)c1=O)c1ccc(F)cc1`, the EC50 was 4.01 µM.
Regarding `CCN(CC)C(=O)Oc1ccnc2cc(Cl)ccc12`, the EC50 entry was “inactive”.
`O=C(OCn1ncc(Br)c(Br)c1=O)c1c(F)cccc1F`: the EC50 is 4.33 µM.
For `O=C(CCc1ccccc1)NNC(=S)NC(=O)c1ccccc1`, the EC50 is 3.42 µM.
Next, `CNc1nc(N)c([N+](=O)[O-])c(Nc2cccc(F)c2)n1`: 8.37 µM.
Consider `CCOC(=O)CS(=O)(=O)c1nc(-c2ccccc2)cc(C(F)(F)F)n1`, for which the EC50 is 6.32 µM.
Turning to `CCCOc1ccc(C(=O)NNC(=S)NC(=O)CC)cc1`, the EC50 was 4.38 µM.

A word on the EC50: it is the concentration giving half of the maximal effect.
